Experiments:
hCA I = molecular target: T1, hCA I (Homo sapiens, UniProt P00915); assay: CA inhibition, stopped-flow CO2 hydrase assay; assay type: biochemical; settings: stopped-flow technique; incubation time 6 h; mean of 3 assays
T1 construct: made in house
How it was run: (§1)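 Stopped-flow CO2 hydration used saturated CO2 solutions at 25 °C as substrate. Enzyme and inhibitor (10 μM stocks in DMSO-water, diluted down to 0.01 nM) were preincubated for 6 h at room temperature.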

hCA II = molecular target: T2, hCA II (Homo sapiens, UniProt P00918); assay: CA inhibition, stopped-flow CO2 hydrase assay; assay type: biochemical; settings: stopped-flow technique; incubation time 6 h; mean of 3 assays
T2 construct: made in house
How it was run: as §1

hCA IX = molecular target: T3, hCA IX (Homo sapiens, UniProt Q16790); assay: CA inhibition, stopped-flow CO2 hydrase assay; assay type: biochemical; settings: stopped-flow technique; incubation time 6 h; mean of 3 assays
T3 construct: made in house
How it was run: as §1

hCA XII = molecular target: T4, hCA XII (Homo sapiens, UniProt O43570); assay: CA inhibition, stopped-flow CO2 hydrase assay; assay type: biochemical; settings: stopped-flow technique; incubation time 6 h; mean of 3 assays
T4 construct: made in house
T4 sequence (O43570 25-354): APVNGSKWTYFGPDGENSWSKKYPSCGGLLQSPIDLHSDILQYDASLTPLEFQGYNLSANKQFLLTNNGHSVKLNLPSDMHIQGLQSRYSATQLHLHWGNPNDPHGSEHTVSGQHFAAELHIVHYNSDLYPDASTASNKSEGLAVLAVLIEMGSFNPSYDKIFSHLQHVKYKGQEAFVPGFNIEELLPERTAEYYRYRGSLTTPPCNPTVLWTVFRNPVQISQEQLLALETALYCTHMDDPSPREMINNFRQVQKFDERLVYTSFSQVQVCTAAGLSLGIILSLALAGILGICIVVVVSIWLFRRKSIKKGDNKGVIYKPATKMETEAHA
How it was run: as §1

K562/DOX cells = assay: Doxorubicin cytotoxicity enhancement assay (MTT); assay type: cell-based, human; settings: 72 h
How it was run: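 K562/DOX cells exposed 72 h to varying doxorubicin concentrations plus 1 or 3 µM test compound. Viability by MTT absorbance, expressed as percentage of untreated control cells.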

A549/DOX cells [1] = assay: Doxorubicin co-administration assay (MTT); assay type: cell-based, human; settings: compound at 3 µM + doxorubicin 5 µM, 48 h
Description: (§2) These compounds were then assayed at 1 and 3 µM concentrations in co-administration with doxorubicin at a concentration of 5 µM, which is known to discriminate well between sensitive and resistant cells. […] Moreover, in the A549/DOX cell line, the co-administration of 1, 2, 4–6, 14 and 19, tested at 3 µM, led to the highest enhancement of doxorubicin toxicity reaching a reduction of nearly 55.0% in cell viability.
(§3) K562/DOX cells were incubated for 72 h with different concentrations of doxorubicin in combination with 1 or 3 µM of all compounds. IC50 was the concentration killing 50% of cells and was determined graphically from relative survival curves obtained by GraphPad Prism 5 software (GraphPad, San Diego, CA, USA). HT29, A549, HT29/DOX and A549/DOX cells were incubated for 48 h with 5 µM doxorubicin, alone or in combination with 1 or 3 µM of selected compounds. Cell viability of the cell lines was measured by the MTT assay, using a Synergy HT microplate spectrofluorometer (Bio-Tek Instruments, Winooski, VT, USA). The absorbance of untreated cells was considered 100%; results were expressed as a percentage of viable treated cells versus the control untreated cells.

HT29/DOX cells [2] = assay: Doxorubicin co-administration assay (MTT); assay type: cell-based, human; settings: compound at 3 µM + doxorubicin 5 µM, 48 h
Description: as §2, §3

A549/DOX cells [3] = assay: Intracellular doxorubicin accumulation; assay type: cell-based, human; settings: compound at 3 µM + doxorubicin 5 µM, 24 h, vs doxorubicin alone
Description: (§4) Furthermore, we evaluated the intracellular accumulation of 5 µM doxorubicin in HT29/DOX and A549/DOX cells alone and in the presence of derivatives 1, 2, 4–6, 14, 19 and 33, studied at 1 and 3 µM. This test allowed us to investigate if the reduced viability measured in the co-administration assay was due to different retention of the anticancer drug within the cells. In the parental HT29 and A549 cell lines, we measured a greater amount of intracellular doxorubicin compared to their resistant counterparts, which was not enhanced by our selected compounds (Supplementary Materials, Figure S7). However, in HT29/DOX and A549/DOX cells, derivatives 1, 2, 4–6, 14, 19 and 33 were able to increase the intracellular retention of the anticancer drug, in a dose-dependent way. […]
(§5) Intracellular doxorubicin was measured in 10,000 cells seeded into 96-well plates and incubated for 24 h with 5 µM doxorubicin with or without 1 µM and 3 µM of each compound. The intracellular drug content was measured fluorimetrically as detailed previously using a Synergy HTX 96-well plate reader. The results were expressed as nmol doxorubicin/mg cell proteins based on the titration curve previously prepared.

HT29/DOX cells [4] = assay: Intracellular doxorubicin accumulation; assay type: cell-based, human; settings: compound at 3 µM + doxorubicin 5 µM, 24 h, vs doxorubicin alone
Description: as §4, §5

P-gp [5] = molecular target: T5, P-gp (Homo sapiens, UniProt P08183); assay: Calcein-AM transport inhibition in MDCK-MDR1 cells; assay type: cell-based; parameters: expressed in transfected cells; host or cells: MDCK (Madin-Darby Canine Kidney); settings: mean ± SEM
T5 sequence (P08183 whole entry): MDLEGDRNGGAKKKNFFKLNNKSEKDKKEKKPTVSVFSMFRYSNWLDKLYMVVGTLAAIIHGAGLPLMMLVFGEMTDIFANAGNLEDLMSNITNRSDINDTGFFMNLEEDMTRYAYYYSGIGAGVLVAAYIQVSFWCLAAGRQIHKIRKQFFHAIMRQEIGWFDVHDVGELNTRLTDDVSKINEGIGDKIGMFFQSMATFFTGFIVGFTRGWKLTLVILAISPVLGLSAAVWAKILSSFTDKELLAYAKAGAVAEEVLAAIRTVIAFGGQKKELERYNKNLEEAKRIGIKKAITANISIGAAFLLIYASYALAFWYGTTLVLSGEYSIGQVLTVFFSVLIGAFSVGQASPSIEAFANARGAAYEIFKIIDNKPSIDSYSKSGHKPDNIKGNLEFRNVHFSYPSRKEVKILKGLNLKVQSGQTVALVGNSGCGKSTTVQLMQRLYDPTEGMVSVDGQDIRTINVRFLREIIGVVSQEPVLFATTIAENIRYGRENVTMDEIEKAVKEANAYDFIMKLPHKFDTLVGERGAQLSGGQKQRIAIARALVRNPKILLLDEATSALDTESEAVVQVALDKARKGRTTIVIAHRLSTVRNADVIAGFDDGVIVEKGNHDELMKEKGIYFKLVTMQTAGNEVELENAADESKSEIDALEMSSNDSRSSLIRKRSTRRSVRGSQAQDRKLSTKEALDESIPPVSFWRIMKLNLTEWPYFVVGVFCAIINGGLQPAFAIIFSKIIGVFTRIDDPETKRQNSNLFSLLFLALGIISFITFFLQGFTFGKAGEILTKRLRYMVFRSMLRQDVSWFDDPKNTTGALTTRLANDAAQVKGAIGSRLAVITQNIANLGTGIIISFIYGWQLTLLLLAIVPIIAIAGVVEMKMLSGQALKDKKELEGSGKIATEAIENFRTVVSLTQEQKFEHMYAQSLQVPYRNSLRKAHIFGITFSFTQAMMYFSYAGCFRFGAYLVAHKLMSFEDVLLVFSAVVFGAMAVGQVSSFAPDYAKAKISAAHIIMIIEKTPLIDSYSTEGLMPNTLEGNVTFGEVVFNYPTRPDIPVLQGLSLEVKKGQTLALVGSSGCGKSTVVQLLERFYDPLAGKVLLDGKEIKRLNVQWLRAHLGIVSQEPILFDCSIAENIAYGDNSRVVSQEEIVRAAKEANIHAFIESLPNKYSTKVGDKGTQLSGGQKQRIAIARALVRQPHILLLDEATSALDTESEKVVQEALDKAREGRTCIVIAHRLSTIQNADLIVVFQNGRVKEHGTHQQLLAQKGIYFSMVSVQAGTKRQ
Excerpt: (§6) The MDR interaction potency of these compounds was studied by detecting the inhibition of the P-gp-, MRP1- or BCRP-mediated efflux of a substrate in cells overexpressing the studied pumps. In detail, we measured the following: (i) the transport inhibition of the profluorescent probe calcein-AM (P-gp and MRP1 substrate) in MDCK-MDR1 and MDCK-MRP1 cells (P-gp- and MRP1-overexpressing cells, respectively); (ii) the transport inhibition of the fluorescent probe Hoechst 33342 (BCRP substrate) in MDCK-BCRP cells (BCRP-overexpressing cells).
Experiments were performed as previously described. MDCK-MDR1 and MDCK-MRP1 cells (30,000 cells per well) were seeded in a 96-well black CulturePlate in 100 µL of medium and allowed to grow overnight in a humidified atmosphere of 5% CO2 at 37 °C. Tested compounds (100 µL) in a final concentration ranging between 0.01 nM and 100 µM, solubilized in culture medium, were added to the monolayers. After 30 min in a humidified atmosphere of 5% CO2 at 37 °C, 100 µL of Calcein-AM in phosphate-buffered saline (PBS) was added to obtain a final concentration of 2.5 µM and the plate was incubated for 30 min. All wells were washed 3 times with 100 µL ice-cold PBS and read with Victor3 (PerkinElmer) after adding 100 µL of cold PBS. Excitation and emission wavelengths of 485 nm and 535 nm, respectively, were used. In these experimental conditions, cell Calcein-AM accumulation in the absence and in the presence of each tested compound was evaluated and compared to the basal level of fluorescence derived from untreated cells. The increase in fluorescence from the baseline level was measured in the treated wells. EC50 values were determined by fitting the rate of fluorescence increase versus log[dose].

MRP1 = molecular target: T6, MRP1 (Homo sapiens, UniProt P33527); assay: Calcein-AM transport inhibition in MDCK-MRP1 cells; assay type: cell-based; settings: mean ± SEM
T6 construct: expressed in transfected cells; host or cells: MDCK (Madin-Darby Canine Kidney)
T6 sequence (P33527 whole entry): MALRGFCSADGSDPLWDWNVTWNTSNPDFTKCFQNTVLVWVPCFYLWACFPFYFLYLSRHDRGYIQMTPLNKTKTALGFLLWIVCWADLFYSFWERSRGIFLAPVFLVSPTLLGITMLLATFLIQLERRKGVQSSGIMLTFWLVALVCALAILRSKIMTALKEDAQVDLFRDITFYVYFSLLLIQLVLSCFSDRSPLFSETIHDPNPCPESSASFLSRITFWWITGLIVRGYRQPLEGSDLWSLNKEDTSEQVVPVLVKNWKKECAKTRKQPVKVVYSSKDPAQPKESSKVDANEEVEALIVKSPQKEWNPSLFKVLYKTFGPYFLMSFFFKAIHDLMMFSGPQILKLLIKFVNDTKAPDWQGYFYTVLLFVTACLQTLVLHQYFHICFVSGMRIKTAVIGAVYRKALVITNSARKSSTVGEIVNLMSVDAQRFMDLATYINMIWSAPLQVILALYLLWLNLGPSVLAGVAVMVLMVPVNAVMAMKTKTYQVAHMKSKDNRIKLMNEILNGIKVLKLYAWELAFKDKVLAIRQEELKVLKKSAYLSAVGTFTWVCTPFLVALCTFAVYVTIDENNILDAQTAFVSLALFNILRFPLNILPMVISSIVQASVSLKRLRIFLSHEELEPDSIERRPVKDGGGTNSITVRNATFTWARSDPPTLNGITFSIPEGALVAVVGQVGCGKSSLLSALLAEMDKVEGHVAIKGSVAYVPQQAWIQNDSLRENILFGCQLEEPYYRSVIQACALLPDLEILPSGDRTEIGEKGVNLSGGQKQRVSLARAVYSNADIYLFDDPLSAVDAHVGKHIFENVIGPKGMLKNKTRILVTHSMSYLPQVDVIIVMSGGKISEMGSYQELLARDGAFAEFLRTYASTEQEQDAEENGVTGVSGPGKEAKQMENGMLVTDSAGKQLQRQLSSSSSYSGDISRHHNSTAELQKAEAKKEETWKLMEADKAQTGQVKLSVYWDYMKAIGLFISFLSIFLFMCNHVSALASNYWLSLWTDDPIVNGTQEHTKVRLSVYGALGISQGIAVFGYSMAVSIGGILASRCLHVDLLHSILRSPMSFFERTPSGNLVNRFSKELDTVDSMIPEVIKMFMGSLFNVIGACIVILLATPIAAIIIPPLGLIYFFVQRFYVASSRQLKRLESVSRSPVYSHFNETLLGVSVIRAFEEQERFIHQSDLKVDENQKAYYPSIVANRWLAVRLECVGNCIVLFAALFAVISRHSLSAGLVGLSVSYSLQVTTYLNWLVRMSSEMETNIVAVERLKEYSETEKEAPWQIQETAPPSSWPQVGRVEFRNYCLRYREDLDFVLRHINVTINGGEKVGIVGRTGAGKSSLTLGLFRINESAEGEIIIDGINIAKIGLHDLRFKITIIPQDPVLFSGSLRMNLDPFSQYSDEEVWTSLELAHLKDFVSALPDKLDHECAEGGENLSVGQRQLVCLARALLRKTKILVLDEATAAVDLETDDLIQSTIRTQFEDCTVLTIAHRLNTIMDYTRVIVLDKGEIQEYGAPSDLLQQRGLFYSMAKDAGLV
Excerpt: as §6
Experiments were performed as previously described. MDCK-MDR1 and MDCK-MRP1 cells (30,000 cells per well) were seeded in a 96-well black CulturePlate in 100 µL of medium and allowed to grow overnight in a humidified atmosphere of 5% CO2 at 37 °C. […] All wells were washed 3 times with 100 µL ice-cold PBS and read with Victor3 (PerkinElmer) after adding 100 µL of cold PBS. […] In these experimental conditions, cell Calcein-AM accumulation in the absence and in the presence of each tested compound was evaluated and compared to the basal level of fluorescence derived from untreated cells. The increase in fluorescence from the baseline level was measured in the treated wells. EC50 values were determined by fitting the rate of fluorescence increase versus log[dose].

A549/DOX cells [6] = assay: Intrinsic cytotoxicity (MTT); assay type: cell-based, human; settings: compound alone, 1 µM, 48 h; A549/DOX vs A549
Description: (§7) All compounds were preliminarily studied to evaluate their intrinsic cytotoxicity at different concentrations (from 10 nM to 50 µM) in the parental HT29 and A549 and the resistant HT29/DOX and A549/DOX cells using the MTT assay.
(§8) The intrinsic toxicity of the studied compounds was determined by an MTT assay. K562 and K562/DOX were exposed for 72 h with compounds at 1 and 3 µM concentrations while HT29, A549, HT29/DOX and A549/DOX cells were incubated for 48 h with compounds used at different concentrations (from 10 nM to 50 µM). The percentage of growth compared to the untreated control was transformed into histograms with the GraphPad Prism 5 program. […]

HT29/DOX cells [7] = assay: Intrinsic cytotoxicity (MTT); assay type: cell-based, human; settings: compound alone, 1 µM, 48 h; HT29/DOX vs HT29
Description: as §7, §8

A549/DOX cells [8] = assay: ROS measurement (DCFDA-AM); assay type: cell-based, human; settings: 1 µM
Description: (§9) Selected compounds have been tested for their cytotoxic activity at 24 h on HT29/DOX and A549/DOX cells and on the parental HT29 and A549 cells by MTT assay. To evaluate the mechanisms involved in CS, reactive oxygen species (ROS) were measured using the fluorescent probe 5-(and-6)-chloromethyl-2′,7′-dichlorodihydro-fluorescein diacetate-acetoxymethyl ester (DCFDA-AM), as previously reported. The results were expressed as nmol/mg cellular proteins. The amount of TBARS, as an index of lipoperoxidation, was measured with the Lipid Peroxidation (4-HNE) Assay Kit (Abcam, Cambridge, UK) that evaluates the 4-hydroxy-nonenale, one of the TBARS Results were expressed as nmoles/mg mitochondrial protein.

HT29/DOX cells [9] = assay: ROS measurement (DCFDA-AM); assay type: cell-based, human; settings: 1 µM
Description: as §9

A549/DOX cells [10] = assay: TBARS (lipid peroxidation, 4-HNE kit); assay type: cell-based, human; settings: 1 µM
Description: as §9

HT29/DOX cells [11] = assay: TBARS (lipid peroxidation, 4-HNE kit); assay type: cell-based, human; settings: 1 µM
Description: as §9

A549/DOX cells [12] = assay: Membrane fluidity; assay type: cell-based, human; settings: 1 µM
Description: (§10) Membrane fluidity was measured fluorometrically using the Membrane Fluidity Kit, Abcam, according to the manufacturer’s instructions.

HT29/DOX cells [13] = assay: Membrane fluidity; assay type: cell-based, human; settings: 1 µM
Description: as §10

P-gp [14] = molecular target: T5, P-gp; assay: P-gp ATPase activity (HT29/DOX cells); assay type: biochemical; parameters: endogenous in cells; host or cells: HT29/DOX (A27) and A549/DOX (A28); settings: 1 µM, compared with HT29
Description: (§11) Plasma-membrane vesicles enriched with P-gp were prepared by sequential centrifugation as detailed previously. The ATPase activity of immunopurified P-gp was evaluated spectrophotometrically by measuring the absorbance of the phosphate hydrolyzed from ATP at 620 nm, using a Synergy HT Multi-Detection Microplate Reader (Bio-Tek Instruments). The absorbance was converted into μmol hydrolyzed phosphate/min/mg proteins, according to the titration curve previously prepared.

P-gp [15] = molecular target: T5, P-gp; assay: P-gp ATPase activity (A549/DOX cells); assay type: biochemical; parameters: endogenous in cells; host or cells: HT29/DOX (A27) and A549/DOX (A28); settings: 1 µM, compared with A549
Description: as §11

T1 sequence (P00915 whole entry): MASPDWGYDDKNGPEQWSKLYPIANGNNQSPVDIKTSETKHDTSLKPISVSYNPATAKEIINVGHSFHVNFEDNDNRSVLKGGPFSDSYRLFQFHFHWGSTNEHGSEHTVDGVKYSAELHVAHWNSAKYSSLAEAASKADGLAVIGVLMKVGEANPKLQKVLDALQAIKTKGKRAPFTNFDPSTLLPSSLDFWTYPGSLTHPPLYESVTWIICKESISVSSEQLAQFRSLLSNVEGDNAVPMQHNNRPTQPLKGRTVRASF

COc1ccc(C(CCCN2CCN(CCCCOc3ccc4oc(=O)ccc4c3)CC2)c2ccc(OC)cc2)cc1 [Compound 33, 6-(4-(4-(4,4-Bis(4-methoxyphenyl)butyl)piperazin-1-yl)butoxy)-2H-chromen-2-one]
Ki (hCA I): > 10 µM | Ki (hCA II): > 10 µM | Ki (hCA IX): 74.6 nM | Ki (hCA XII): 46.8 nM | RF (Reversal Fold: IC50 of doxorubicin alone / in presence of modulator) (K562/DOX cells; compound at 1 µM): 9.9 | reduction in cell viability (A549/DOX cells [1]): 62.6% | reduction in cell viability (HT29/DOX cells [2]): 67.6% | greater accumulation of doxorubicin (A549/DOX cells [3]): 4 fold | greater accumulation of doxorubicin (HT29/DOX cells [4]): 3 fold | EC50 (P-gp [5]): 3.02 ± 0.09 µM

COc1cc(CN2CCN(CCOc3ccc4ccc(=O)oc4c3)CC2)cc(OC)c1OC [Compound 13, 7-(2-(4-(3,4,5-Trimethoxybenzyl)piperazin-1-yl)ethoxy)-2H-chromen-2-one]
Ki (hCA I): > 10 µM | Ki (hCA II): > 10 µM | Ki (hCA IX): 23.7 nM | Ki (hCA XII): 6.2 nM | RF (Reversal Fold: IC50 of doxorubicin alone / in presence of modulator) (K562/DOX cells; compound at 1 µM): 1.0 | RF (Reversal Fold: IC50 of doxorubicin alone / in presence of modulator) (K562/DOX cells; compound at 3 µM): 1.9 | EC50 (MRP1): 52 ± 10 µM | more cytotoxic in resistant cells than in parental sensitive cells (A549/DOX cells [6]): 15%-20% | more cytotoxic in resistant cells than in parental sensitive cells (HT29/DOX cells [7]): 15%-20% | increase of ROS levels compared to the control (A549/DOX cells [8]): 7–8 times | increase of ROS levels compared to the control (HT29/DOX cells [9]): 3–4 times | increase of TBARS levels compared to the control (A549/DOX cells [10]): 4 times | increase of TBARS levels compared to the control (HT29/DOX cells [11]): 2.6 times | membrane fluidity (A549/DOX cells [12]): increased membrane fluidity | membrane fluidity (HT29/DOX cells [13]): increased membrane fluidity | P-gp catalytic activity (P-gp [14]): lowered the catalytic efficacy of P-gp in resistant cells to levels comparable to drug-sensitive HT29 and A549 cells | P-gp catalytic activity (P-gp [15]): lowered the catalytic efficacy of P-gp in resistant cells to levels comparable to drug-sensitive HT29 and A549 cells | EC50 (P-gp [5]): 14.5 ± 0.25 µM

— paper PMC11279465, “Dual Inhibitors of P-gp and Carbonic Anhydrase XII (hCA XII) against Tumor Multidrug Resistance with Piperazine Scaffold” (Molecules, 2024)
